Test results: PubChem BioAssay (NCI)
Several values for one entry are separate records, joined by “and”; a condition that tells them apart may be missing. Identical values can stand only once.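 Compound exposure: 48 hours, 5 concentrations, 96-well plates. Abbreviation: GI50, concentration required for 50% inhibition of growth. TGI denotes the concentration required for complete inhibition of growth.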

Columns and labels:
Test in all cases: growth of human tumour cells (NCI), 48 h
NCI/ADR-RES ovarian = system: NCI/ADR-RES ovarian
NCI-H23 lung = system: NCI-H23 lung
SNB-19 CNS = system: SNB-19 CNS
MOLT-4 leukemia = system: MOLT-4 leukemia
EKVX NSCLC = system: EKVX NSCLC
SK-MEL-28 melanoma = system: SK-MEL-28 melanoma
DU-145 prostate = system: DU-145 prostate
KM12 colon = system: KM12 colon
LOX IMVI melanoma = system: LOX IMVI melanoma
NCI-H226 lung = system: NCI-H226 lung

Structure (SMILES) | GI50 (NCI/ADR-RES ovarian) | TGI (NCI/ADR-RES ovarian) | GI50 (NCI-H23 lung) | TGI (NCI-H23 lung) | GI50 (SNB-19 CNS) | TGI (SNB-19 CNS) | GI50 (MOLT-4 leukemia) | TGI (MOLT-4 leukemia) | GI50 (EKVX NSCLC) [µM] | TGI (EKVX NSCLC) | GI50 (SK-MEL-28 melanoma) | TGI (SK-MEL-28 melanoma) | GI50 (DU-145 prostate) | TGI (DU-145 prostate) | GI50 (KM12 colon) [µM] | TGI (KM12 colon) | GI50 (LOX IMVI melanoma) | TGI (LOX IMVI melanoma) | GI50 (NCI-H226 lung) | TGI (NCI-H226 lung)
CSc1nsc(S/C=C\C(=O)c2ccc(C)cc2)n1 | 25.8 µM | 67.7 µM | 17.3 µM | 34.6 µM | 28.1 µM | > 68.2 µM | 1.61 µM | > 51.5 µM | 22.5 | 49.7 µM | 13.4 µM | > 45.1 µM | 20.5 µM | > 49.5 µM | 28 | > 64.7 µM | 4.94 µM | 10.8 µM | 20.7 µM | 55.5 µM
COC(=O)c1ccc2c(c1)C(=O)c1c-2n(CCCN)c(=O)c2cc(OC)c(OC)cc12 | 42.6 µM | > 100 µM | 17.1 µM | 33.5 µM | 19.5 µM | 42.6 µM | 1.83 µM | 4.67 µM | 17.7 | 38.6 µM | 17.9 µM | 35.2 µM | 7.89 µM | 22.8 µM | 7.47 | 26 µM | 14.6 µM | 32 µM | 16.7 µM | 36.7 µM
Cc1cnc(Nc2ccc(OCCN3CCCC3)cc2)nc1Nc1cccc(S(=O)(=O)NC(C)(C)C)c1 | 7.01 µM and > 7.11 µM | 26.6 µM and > 10 µM | 0.307 µM and 1.92 µM | 7.05 µM and > 10 µM | 2.66 µM and 3.4 µM | 15.6 µM and > 10 µM | 0.18 µM and 1.14 µM | 12.5 µM and > 10 µM |  | 12.9 µM and > 10 µM | 3.27 µM and > 7.8 µM | 17.5 µM and > 10 µM | 0.252 µM and 1.16 µM | 13.6 µM and > 10 µM | 0.361 | 8.72 µM and > 10 µM | 0.211 µM and 0.938 µM | 1.61 µM and 2.3 µM | 0.146 µM and 0.813 µM | 1.9 µM and 2.97 µM
Nc1nc(N)nc(CC(=O)O)n1 |  | > 100 µM |  | > 100 µM |  | > 100 µM |  | > 100 µM |  | > 100 µM |  | > 100 µM |  | > 100 µM |  | > 100 µM |  | > 100 µM |  | > 100 µM
Clc1ccc2c(c1)C(N1CCNCC1)=Nc1ccccc1O2 | 1.99 µM | 5.12 µM | 3.46 µM | 14.3 µM | 2.97 µM | 12.8 µM | 1.82 µM | 4.19 µM | 3.47 | 17.4 µM | 1.61 µM | 2.96 µM | 4.18 µM | 15.4 µM | 1.73 | 3.28 µM | 1.54 µM | 2.87 µM | 2.57 µM | 11.9 µM
Cc1ccc2sc3ccc(N)cc3c(=O)c2c1 |  | > 100 µM |  | > 100 µM |  | > 100 µM |  | > 100 µM |  | > 100 µM |  | > 100 µM |  | > 100 µM |  | > 100 µM |  | > 100 µM |  | > 100 µM
Cc1cc(=O)oc2cc(OC(=O)N(CCCl)CCCl)ccc12 |  | > 100 µM |  | > 100 µM |  | > 100 µM |  | > 100 µM |  | > 100 µM |  | > 100 µM |  | > 100 µM |  | > 100 µM |  | > 100 µM |  | > 100 µM
COc1cc(/C=C2\CC3C4CC=C5C[C@@H](O)CC[C@]5(C)C4CC[C@]3(C)C2=O)ccc1OCCCn1ccnc1 (some centres not stated) | 15.4 µM | 31.7 µM | 18.1 µM | 32.9 µM | 38.8 µM | > 100 µM | 20.8 µM | 41.8 µM | 17 | 47.4 µM | 28.9 µM | > 100 µM | 15.4 µM | 29.6 µM | 25.2 | 54.8 µM | 0.509 µM | 16.4 µM | 19.6 µM | 39.2 µM
CC(C)(C)n1cc(-c2ccnc(NCCCNS(=O)(=O)c3ccc(Br)cc3)c2)c(-c2cccc(O)c2)n1 | 2.21 µM | 5.03 µM | 1.83 µM | 3.72 µM | 2.11 µM | 4.37 µM | 2.3 µM | 6.74 µM | 1.95 | 4.58 µM | 1.79 µM | 3.36 µM | 2.1 µM | 4.23 µM | 2.11 | 4.37 µM | 1.77 µM | 3.2 µM | 2.31 µM | 5.59 µM
CC(=O)c1cc(-c2ccccc2N)n(-c2ccc3c(c2)OCO3)c1C | 0.211 µM |  | 0.218 µM | 97.6 µM | 0.299 µM | > 100 µM | 0.38 µM | > 100 µM | 0.392 | > 100 µM | 2.34 µM | > 73.9 µM | 0.0408 µM | > 100 µM | 0.295 | > 37.7 µM | 0.297 µM | > 100 µM | 0.239 µM | 6.86 µM
CCCCNC(=O)Oc1ccc(/C(=C(/CC)Cc2ccccc2)c2ccc(OCCN3CCCCCC3)cc2)cc1 | 42.1 µM | > 100 µM | 59.1 µM | > 100 µM | 39.8 µM | > 100 µM | 21.8 µM | 72.7 µM | 76.8 | > 100 µM | 16.5 µM | 33.1 µM | 41.7 µM | > 100 µM | 31.7 | > 100 µM | 17 µM | 30.7 µM | > 100 µM | > 100 µM
COC(=O)[C@]1(C)CCC[C@@]2(C)[C@@H]3C[C@@H]4[C@H]5C[C@@]3(CC[C@@H]21)C[C@@]45C |  | 32.1 µM |  | 28.2 µM |  | 26.9 µM |  | 33.8 µM |  | 31.7 µM |  | 47.1 µM |  | 65.9 µM |  |  |  | 34.9 µM |  | 30.5 µM
